From patent US5246945A, “Piperidine derivatives” (Nisshin Flour Milling Co., Ltd., priority 1991, dated 1993)

System: 5-HT3 receptors
Experiment: Antagonism of 5-HT at 5-HT3 receptors: inhibition of 5-HT-induced bradycardia (von Benzold Jarisch Reflex) in anesthesized rats
Assay type: in vivo, rat
Details: 100 μg/kg, i.v. (intrajugular); 5-HT 30 μg/kg given 5 min. later; urethane-anesthesized rats; tested as hydrochloride except Example 9
Description: The compounds prepared in the above examples were respectively tested for antagonism of 5-HT at 5-HT3 receptors.
Administration of 5-HT (serotonin) to anesthesized rats via jugular vein induces temporary bradycardia (von Benzold Jarisch Reflex)(A.S. Paintal, Physiol. Rev., 53, 159-227 (1973)).
Thus, rats were anesthesized with urethane (1 g/kg, i.p.) and recorded for blood pressure and heart rate from left femoral artery. Percent inhibition was calculated from bradycardia induced by 5-HT (30 μg/kg) given 5 min. following intrajugular administration of a compound of the invention, taking the bradycardia induced by the intrajugular administration of 5-HT.
In this test, all of the test compounds were tested in the form of hydrochloride except for the compounds prepared in Example 9. Therefore, concentration of the test drug is expressed in terms of the concentration of the hydrochloride except for the compounds prepared in Example 9.

Row | Structure (SMILES) | % Inhibition (of bradycardia induced by 5-HT)
1 | COc1cc(N)ccc1C(=O)OC(C)C1CCCCN1C (single isomer, unassigned) [5 (more polar isomer), 1-(1-Methyl-2-piperidyl)ethyl 2-methoxy-4-aminobenzoate] | 16%
2 | COc1cc(N)c(Cl)cc1C(=O)OCC1CCCCN1C (stereo not shown) [Example 6, 1-Methyl-2-piperidylmethyl 2-methoxy-4-amino-5-chlorobenzoate] | 76%
3 | CN1CCCCC1COC(=O)c1nn(C)c2ccccc12 (stereo not shown) [Example 2, 1-Methyl-2-piperidylmethyl 1-methylindazole-3-carboxylate] | 34%
4 | CC(OC(=O)c1nn(C)c2ccccc12)C1CCCCN1C (single isomer, unassigned) [1 (less polar isomer), 1-(1-Methyl-2-piperidyl)ethyl 1-methylindazole-3-carboxylate] | 49%
5 | COc1cc(N)c(Cl)cc1C(=O)OC(C)C1CCCCN1C (single isomer, unassigned) [7 (less polar isomer), (1-Methyl-Z-piperidyl)ethyl 2-methoxy-4 amino-5-chlorobenzoate] | 50%
6 | COc1ccc2ncc(C(=O)OCC3CCCCN3C)cc2c1 (stereo not shown) [Example 3] | 26%
7 | Cn1nc(C(=O)OCC2CCCC[N+]2(C)C)c2ccccc21 (stereo not shown) [Example 9, 1,1-Dimethyl-2-(1-methyl-3-indazolylcarboxymethyl)-piperidinium iodide] | 58%
